Data published in ChEMBL document CHEMBL1201862, “PubChem BioAssay data set” (2004).
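Method: 48-hour compound exposure of cells in 96-well plates, five concentrations, linear interpolation of endpoints. Abbreviation: GI50, concentration required for 50% inhibition of growth.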 Active and inactive are the calls of the source. Cut-off read from the data, not from the text of the source: active = GI50 up to about 1.1 µM and inactive = higher.

Assays:
Experiment in all cases: NCI tumour cell line growth inhibition, 48 h
786-0 = tested on: 786-0
A498 = tested on: A498
A549 = tested on: A549
BT-549 = tested on: BT-549
DU-145 = tested on: DU-145
HCT-15 = tested on: HCT-15
HOP-62 = tested on: HOP-62
HOP-92 = tested on: HOP-92
M14 = tested on: M14
MDA-MB-231 = tested on: MDA-MB-231
MDA-MB-435 = tested on: MDA-MB-435
MDA-N = tested on: MDA-N
Malme-3M = tested on: Malme-3M
NCI-H522 = tested on: NCI-H522
OVCAR-8 = tested on: OVCAR-8
SF-539 = tested on: SF-539
SK-MEL-2 = tested on: SK-MEL-2
SNB-75 = tested on: SNB-75
UACC-257 = tested on: UACC-257

Row | Structure (SMILES) | GI50 (786-0) | GI50 (A498) | GI50 (A549) | GI50 (BT-549) | GI50 (DU-145) | GI50 (HCT-15) [µM] | GI50 (HOP-62) | GI50 (HOP-92) | GI50 (M14) | GI50 (MDA-MB-231) | GI50 (MDA-MB-435) | GI50 (MDA-N) | GI50 (Malme-3M) | GI50 (NCI-H522) | GI50 (OVCAR-8) | GI50 (SF-539) | GI50 (SK-MEL-2) | GI50 (SNB-75) | GI50 (UACC-257)
1 | CC(=O)c1c(SCCN2CCOCC2)n(-c2ccccc2)c(=S)n(-c2ccccc2)c1=O | 11.5 µM (inactive) | 11.5 µM (inactive) | 35.2 µM (inactive) | 21.1 µM (inactive) | 8.99 µM (inactive) | 19.5 | 26.2 µM (inactive) | 15.3 µM (inactive) | 16.1 µM (inactive) | 19.1 µM (inactive) | 16 µM (inactive) | 18.8 µM (inactive) | 28.2 µM (inactive) | 21.8 µM (inactive) | 19.3 µM (inactive) | 21.6 µM (inactive) | 20.2 µM (inactive) | 22.3 µM (inactive) | 15.4 µM (inactive)
2 | O=C(c1ccccc1)c1ccc(N2C(=O)/C(=C/c3ccccc3S)N=C2c2ccccc2)c(N2C(=O)/C(=C/c3ccccc3S)N=C2c2ccccc2)c1 | > 100 µM (inactive) | 60.7 µM (inactive) | 33.2 µM (inactive) | 49.3 µM (inactive) | 59 µM (inactive) | 53.3 | 40.7 µM (inactive) | > 100 µM (inactive) | 38.2 µM (inactive) | > 100 µM (inactive) | 19.6 µM (inactive) | 36.5 µM (inactive) |  |  | 27.8 µM (inactive) | 21.3 µM (inactive) | 22.7 µM (inactive) | 21.2 µM (inactive) | > 100 µM (inactive)
3 | COc1ccc(C=O)cc1OS(=O)(=O)C(F)(F)C(F)(F)C(F)(F)C(F)(F)F | 31.6 µM (inactive) | 3.72 µM (inactive) | 48.4 µM (inactive) | 30.2 µM (inactive) | > 68.2 µM (inactive) | 26.9 | 26.6 µM (inactive) | 13.2 µM (inactive) | 28 µM (inactive) | 23.6 µM (inactive) | 19.9 µM (inactive) | 19 µM (inactive) | 23.4 µM (inactive) | 24.5 µM (inactive) | 28.1 µM (inactive) | 18.5 µM (inactive) | 17.1 µM (inactive) | 31.2 µM (inactive) | 36.6 µM (inactive)
4 | CC(=O)N(C(C)=O)n1c(Cc2ccc(Cl)cc2)n[nH]c1=O | > 100 µM (inactive) | > 100 µM (inactive) | > 100 µM (inactive) | > 100 µM (inactive) | > 100 µM (inactive) | > 100 | > 55.8 µM (inactive) | > 100 µM (inactive) | > 100 µM (inactive) | > 100 µM (inactive) | > 100 µM (inactive) | > 100 µM (inactive) | > 52.7 µM (inactive) | > 100 µM (inactive) | > 100 µM (inactive) | > 100 µM (inactive) | > 100 µM (inactive) | > 81.8 µM (inactive) | > 100 µM (inactive)
5 | Cc1cc(=O)[nH]c(-n2[nH]c3c(c2=O)CCCC3)n1 | 57.7 µM (inactive) | > 100 µM (inactive) | 72.1 µM (inactive) | > 100 µM (inactive) | > 100 µM (inactive) | 31.3 |  | 31 µM (inactive) | 73.1 µM (inactive) | 67.9 µM (inactive) | > 100 µM (inactive) | > 100 µM (inactive) | > 100 µM (inactive) | > 100 µM (inactive) |  | 88.5 µM (inactive) | 52.1 µM (inactive) | < 0.01 µM (active) | 66.5 µM (inactive)
6 | Cc1ncc(CO)c(CN)c1O | > 100 µM (inactive) | > 100 µM (inactive) | > 100 µM (inactive) | > 100 µM (inactive) | > 100 µM (inactive) | > 100 | > 100 µM (inactive) |  | > 100 µM (inactive) | > 100 µM (inactive) | > 100 µM (inactive) | > 100 µM (inactive) | > 100 µM (inactive) | > 100 µM (inactive) | > 100 µM (inactive) | > 100 µM (inactive) | > 100 µM (inactive) |  | > 100 µM (inactive)
7 | Cc1cc(C)n(CN(Cn2nc(C)cc2C)c2ccc(N(Cn3nc(C)cc3C)Cn3nc(C)cc3C)cc2)n1 | 19.3 µM (inactive) | 22.2 µM (inactive) | 28 µM (inactive) | 19.2 µM (inactive) | 25.9 µM (inactive) | 21.5 | 25.8 µM (inactive) | 23.9 µM (inactive) | 20 µM (inactive) | 45.7 µM (inactive) | 17.7 µM (inactive) | 18.9 µM (inactive) | 22.3 µM (inactive) | 20.2 µM (inactive) | 27.4 µM (inactive) | 18.1 µM (inactive) | 23.1 µM (inactive) |  | 18.6 µM (inactive)
8 | C1=N/CCNCCNCC/N=C/c2ccccc2OCc2cccc(n2)COc2ccccc2/1 | 64.6 µM (inactive) | > 100 µM (inactive) | > 100 µM (inactive) | 38.5 µM (inactive) | 56.9 µM (inactive) | 45.1 | 35.2 µM (inactive) | 71.4 µM (inactive) | 28.7 µM (inactive) | 57.9 µM (inactive) | 11.3 µM (inactive) | 15.2 µM (inactive) | 61.8 µM (inactive) | 37.8 µM (inactive) | 28.6 µM (inactive) | 26.1 µM (inactive) | > 100 µM (inactive) | 67.9 µM (inactive) | 53.7 µM (inactive)
9 | CSc1nc(SC)c2c(CO)c(Br)n(Cc3ccccc3)c2n1 | 18.7 µM (inactive) | 4.32 µM (inactive) | 29.8 µM (inactive) | 21.6 µM (inactive) | 25.9 µM (inactive) | 70 | 27 µM (inactive) | 17.2 µM (inactive) | 83.2 µM (inactive) | 17.7 µM (inactive) | > 100 µM (inactive) | > 100 µM (inactive) | 52.4 µM (inactive) | 14.2 µM (inactive) | 18 µM (inactive) | 12.2 µM (inactive) | 25.7 µM (inactive) | 13.6 µM (inactive) | 
10 | CC(C)(CO)CNc1nc(N)nc(Cl)c1C=O | 79.3 µM (inactive) | > 100 µM (inactive) | 71.1 µM (inactive) | 41.1 µM (inactive) | 94 µM (inactive) | 15.3 | 23.2 µM (inactive) | 26.2 µM (inactive) |  | 30.1 µM (inactive) | 25.9 µM (inactive) | 25.5 µM (inactive) | 39.7 µM (inactive) | 7.67 µM (inactive) | 22.5 µM (inactive) | 54.2 µM (inactive) | 16.8 µM (inactive) | 35.6 µM (inactive) | 35.4 µM (inactive)
11 | CSC1=C(C#N)C(=O)N(c2ccc(C)cc2)C(=O)C1C#N (configuration not stated) | > 100 µM (inactive) | 82.4 µM (inactive) | > 100 µM (inactive) | > 100 µM (inactive) | > 100 µM (inactive) | > 100 | > 100 µM (inactive) | 25 µM (inactive) | > 100 µM (inactive) | > 100 µM (inactive) | > 100 µM (inactive) | > 100 µM (inactive) | > 100 µM (inactive) | 29.7 µM (inactive) |  | > 100 µM (inactive) | > 100 µM (inactive) |  | > 100 µM (inactive)
12 | Cc1c2c(n(CC(c3ccccc3)c3ccccc3)c1C)NN=C(C#N)S2(=O)=O | > 100 µM (inactive) | > 100 µM (inactive) | > 100 µM (inactive) | > 100 µM (inactive) | > 100 µM (inactive) | > 100 | > 100 µM (inactive) | > 100 µM (inactive) | > 100 µM (inactive) | 33.9 µM (inactive) | > 100 µM (inactive) | > 100 µM (inactive) |  | 45.6 µM (inactive) | > 100 µM (inactive) | > 100 µM (inactive) | > 100 µM (inactive) | 98.4 µM (inactive) | > 100 µM (inactive)
13 | Cc1nc2ccc(S(=O)(=O)Nc3ccccn3)cc2c(=O)n1NS(=O)(=O)c1ccccn1 | > 100 µM (inactive) | > 100 µM (inactive) |  | > 100 µM (inactive) | > 100 µM (inactive) | > 100 | > 100 µM (inactive) | > 100 µM (inactive) | > 100 µM (inactive) | > 100 µM (inactive) | > 100 µM (inactive) | > 100 µM (inactive) | > 100 µM (inactive) | > 100 µM (inactive) | > 100 µM (inactive) | > 100 µM (inactive) | > 100 µM (inactive) | > 100 µM (inactive) | > 100 µM (inactive)
14 | CC(C#N)(NO)C(C)(C#N)NO (configuration not stated) | > 100 µM (inactive) | > 100 µM (inactive) | > 100 µM (inactive) | > 100 µM (inactive) | > 100 µM (inactive) | > 100 |  |  | > 100 µM (inactive) | > 100 µM (inactive) | > 100 µM (inactive) | > 100 µM (inactive) | > 100 µM (inactive) | > 100 µM (inactive) | > 100 µM (inactive) | > 100 µM (inactive) | > 100 µM (inactive) | > 100 µM (inactive) | > 100 µM (inactive)
15 | OC[C@]1(n2nc3ccccc3n2)OC[C@@H]1c1ccccc1 | 34.8 µM (inactive) | 60.5 µM (inactive) | 64.3 µM (inactive) | 28.8 µM (inactive) | 27.5 µM (inactive) | 42.1 | 39.3 µM (inactive) | 44.6 µM (inactive) | 90.6 µM (inactive) | 74.3 µM (inactive) | 32.2 µM (inactive) | 53.7 µM (inactive) | 19.4 µM (inactive) | 20.1 µM (inactive) | 51.5 µM (inactive) | 25.2 µM (inactive) | 34 µM (inactive) |  | 93.8 µM (inactive)
16 | CCOC(=O)c1cc(C2=CCNC2=O)c(-c2cc(C)no2)[nH]1 | 40 µM (inactive) | > 100 µM (inactive) | 37.4 µM (inactive) | > 100 µM (inactive) | > 100 µM (inactive) | 92.9 | 73.3 µM (inactive) |  | 51.1 µM (inactive) | 36.4 µM (inactive) | > 100 µM (inactive) | 94.6 µM (inactive) | > 100 µM (inactive) | 16.7 µM (inactive) | 45 µM (inactive) | > 100 µM (inactive) | > 100 µM (inactive) | 34 µM (inactive) | > 100 µM (inactive)
